Consider two compounds from ChEMBL document CHEMBL4699511, “Cedrol, a Sesquiterpene Alcohol, Enhances the Anticancer Efficacy of Temozolomide in Attenuating Drug Resistance via Regulation of the DNA Damage Response and MGMT Expression” (J Nat Prod, 2020).

The test system of data set [1] is DBTRG-05MG. Description: Induction of apoptosis in human DBTRG-05MG cells assessed as Bcl2 expression at 206 uM after 48 hrs by Western blot analysis (reference value: 1). It is filed as functional.
In data set [2] the test system is RG2. Description: Induction of DNA damage in rat RG2 cells assessed as ATR phosphorylation at ser428 residues at 206 uM after 48 hrs by Western blot analysis (reference value: 1). It is filed as functional. On the technique in general: In western blotting, separated proteins are transferred to a membrane and probed.
The nature of data set [3]: Toxicity in BALB/c mouse xenografted with DBTRG-05MG cells assessed as reduction in body weight at 5 mg/kg, ip after 5 days measured every 2 days. It is filed as organism-based. To be noted: in vivo, 120 h, time 5 day.
The subject of data set [4] is RG2. Description: Induction of cell cycle arrest in rat RG2 cells assessed as accumulation at G2/M phase at 206 uM after 12 hrs by propidium iodide staining based flow cytometric analysis (reference value: 20.04 +/- 0.55%). It is filed as functional. For orientation: In flow cytometry, cells or beads pass a laser one at a time.
Data set [5] has as its system DBTRG-05MG. Description: Induction of apoptosis in human DBTRG-05MG cells assessed as cleaved PARP expression at 206 uM after 48 hrs by Western blot analysis (reference value: 1). It is filed as functional.
Data set [6] deals with RG2. Description: Induction of apoptosis in rat RG2 cells assessed as Bcl2 expression at 112.4 uM after 48 hrs by Western blot analysis (reference value: 1). It is filed as functional.
For data set [7], the system named is DBTRG-05MG. As to the kind of experiment: Induction of apoptosis in human DBTRG-05MG cells assessed as Bcl2 expression at 112.4 uM after 48 hrs by Western blot analysis (reference value: 1). It is filed as functional.
In data set [8] the test system is DBTRG-05MG. Description: Synergistic cytotoxicity against human DBTRG-05MG cells assessed as combination index at 112.4 uM after 48 hrs in presence of 515.1 uM TMZ by MTT assay. It is filed as functional. A general note: Tetrazolium dyes change colour on reduction, which living cells bring about.
Data set [9] deals with DBTRG-05MG. As to the kind of experiment: Induction of DNA damage in human DBTRG-05MG cells assessed as Chk1 phosphorylation at ser345 residues at 112.4 uM after 48 hrs by Western blot analysis (reference value: 1). It is filed as functional.
Data set [10] concerns DBTRG-05MG. Description: Induction of cell cycle arrest in human DBTRG-05MG cells assessed as CDK4 expression at 112.4 uM after 48 hrs by Western blot analysis (reference value: 1). It is filed as functional.
Data set [11] deals with RG2. Description: Induction of cell cycle arrest in rat RG2 cells assessed as accumulation at G0/G1 phase at 112.4 uM after 24 hrs by propidium iodide staining based flow cytometric analysis (reference value: 57.81 +/- 1.9%). It is filed as functional.
For data set [12], the system named is DBTRG-05MG. Description: Synergistic cytotoxicity against human DBTRG-05MG cells assessed as combination index at 134.9 uM after 48 hrs in presence of 103 uM TMZ by MTT assay. It is filed as functional.
Data set [13] concerns DBTRG-05MG. As to the kind of experiment: Induction of cell cycle arrest in human DBTRG-05MG cells assessed as accumulation at G0/G1 phase at 112.4 uM after 12 hrs in presence of TMZ by propidium iodide staining based flow cytometric analysis (reference value: 47.16 +/- 1.55%). It is filed as functional.
Data set [14] has as its system RG2. Description: Induction of cell cycle arrest in rat RG2 cells assessed as accumulation at G2/M phase at 112.4 uM after 24 hrs by propidium iodide staining based flow cytometric analysis (reference value: 20.04 +/- 0.55%). It is filed as functional.
Data set [15] relates to DBTRG-05MG. As to the kind of experiment: Induction of apoptosis in human DBTRG-05MG cells assessed as increase in apoptotic body formation at 112.4 uM after 48 hrs in presence of TMZ by TUNEL assay. It is filed as functional, cell-based.
The test system of data set [16] is DBTRG-05MG. Description: Antitumour activity against human DBTRG-05MG cells xenografted in BALB/c nude mouse assessed as reduction in tumour growth at 75 mg/kg, sc for every 2 days for 20 days and measured every 2 days. It is filed as functional, organism-based. Particulars: time 20.0 day.
In data set [17] the test system is RG2. As to the kind of experiment: Synergistic cytotoxicity against rat RG2 cells assessed as combination index at 134.9 uM after 48 hrs in presence of 412.1 uM TMZ by MTT assay. It is filed as functional.
The subject of data set [18] is DBTRG-05MG. As to the kind of experiment: Induction of DNA damage in human DBTRG-05MG cells assessed as ATM phosphorylation at ser1981 residues at 112.4 uM after 48 hrs by Western blot analysis (reference value: 1). It is filed as functional.
For data set [19], the system named is DBTRG-05MG. As to the kind of experiment: Inhibition of JNK phosphorylation at Thr183/Tyr185 residues in human DBTRG-05MG cells at 112.4uM after 48 hrs by Western blot analysis (reference value: 1). It is filed as cell-based.
The nature of data set [20]: Effect on AKT expression in human DBTRG-05MG cells at 112.4uM after 48 hrs by Western blot analysis (reference value: 1). It is filed as functional.
Data set [21] relates to RG2. As to the kind of experiment: Induction of cell cycle arrest in rat RG2 cells assessed as accumulation at G0/G1 phase at 112.4 uM after 6 hrs by propidium iodide staining based flow cytometric analysis (reference value: 57.81 +/- 1.9%). It is filed as functional.
Data set [22] in a line: Inhibition of TMZ-induced drug resistance in human DBTRG-05MG cells assessed as MGMT expression at 112.4 uM after 48 hrs by Western blot analysis (reference value: 1.3). It is filed as functional.
Data set [23] deals with RG2. Description: Induction of cell cycle arrest in rat RG2 cells assessed as CDK4 expression at 112.4 uM after 48 hrs by Western blot analysis (reference value: 1). It is filed as functional.
The test system of data set [24] is RG2. Description: Induction of cell cycle arrest in rat RG2 cells assessed as accumulation at G2/M phase at 112.4 uM after 24 hrs in presence of TMZ by propidium iodide staining based flow cytometric analysis (reference value: 20.04 +/- 0.55%). It is filed as functional.
The test system of data set [25] is DBTRG-05MG. Description: Induction of cell cycle arrest in human DBTRG-05MG cells assessed as accumulation at S phase at 112.4 uM after 48 hrs by propidium iodide staining based flow cytometric analysis (reference value: 22.76 +/- 1.56%). It is filed as functional.
Data set [26] deals with RG2. As to the kind of experiment: Synergistic cytotoxicity against rat RG2 cells assessed as combination index at 89.9 uM after 48 hrs in presence of 206 uM TMZ by MTT assay. It is filed as functional.
Data set [27] in a line: Synergistic cytotoxicity against rat CTX TNA2 cells assessed as combination index at 112.4 uM after 48 hrs in presence of 412.1 uM TMZ by MTT assay. It is filed as cell-based. To be noted: ctx tna2, 48 h.
Data set [28] can be described thus: Effect of MGMT expression in human DBTRG-05MG cells at 112.4 uM after 48 hrs by Western blot analysis (reference value: 1). It is filed as functional.
Data set [29] has as its system DBTRG-05MG. Description: Potentiation of TMZ-induced antitumor activity against human DBTRG-05MG cells xenografted in BALB/c nude mouse assessed as reduction in tumor growth at 75 mg/kg, sc co-treated with TMZ for 18 days by H and E staining-based bright field microscopic analysis. It is filed as functional, organism-based. To be noted: time 18.0 day.
Data set [30] concerns DBTRG-05MG. As to the kind of experiment: Induction of apoptosis in human DBTRG-05MG cells assessed as phosphorylated caspace-9 expression at 112.4 uM after 48 hrs in presence of TMZ by Western blot analysis (reference value: 1). It is filed as functional.
Data set [31] can be described thus: Synergistic cytotoxicity against rat CTX TNA2 cells assessed as synergistic effect index at 134.9 uM after 48 hrs in presence of 515.1 uM TMZ by MTT assay. It is filed as cell-based. Particulars: ctx tna2, 48 h.
For data set [32], the system named is DBTRG-05MG. As to the kind of experiment: Inhibition of ERK phosphorylation at Tyr204 residues in human DBTRG-05MG cells at 112.4uM after 48 hrs by Western blot analysis (reference value: 1). It is filed as cell-based.
For data set [33], the system named is RG2. Description: Induction of apoptosis in rat RG2 cells assessed as increase in DNA fragmentation at 112.4 uM after 48 hrs in presence of TMZ by TUNEL assay. It is filed as functional, cell-based.

Calls of active or inactive are those of the source. The calls are words filed in the database; no cut-off is given here.

For `Cn1nnc2c(C(N)=O)ncn2c1=O` [TEMOZOLOMIDE], the “fold change (FC)” value in the data set with DBTRG-05MG [1] amounted to 1.3; in the data set on RG2 [2], 0.8; with DBTRG-05MG [5] it was 1.4. The Activity entry in data set [3] was “Non-Toxic”; with RG2 [4] it was 28.32%.
`C[C@@H]1CC[C@H]2C(C)(C)[C@H]3C[C@@]12CC[C@@]3(C)O` [CEDROL]: the “fold change (FC)” value in the data set with RG2 [6] was 1.1; with DBTRG-05MG [7], 1.3; with DBTRG-05MG [9], 0.9; with DBTRG-05MG [10], 1; with DBTRG-05MG [18], 1.8; in the data set with DBTRG-05MG [19], 1. Besides, the “fold change (FC)” value in [20] is 0.9; in [22], 0.8; in the data set with RG2 [23], 0.8; in [28], 0.8; in the data set on DBTRG-05MG [30], 0.4; in the data set on DBTRG-05MG [32], 0.9. The CI in the data set with DBTRG-05MG [8] came to 0.7; in the data set on DBTRG-05MG [12], 0.64; with RG2 [17], 0.93; with RG2 [26], 0.98; in data set [27] it was 1.1. The Activity amounted to 72.5% in the data set with RG2 [11]; 49.57% in the data set with DBTRG-05MG [13]; 18.42% in the data set on RG2 [14]; 60.95% in the data set with RG2 [21]; 26.19% in the data set on RG2 [24]; 18.04% in the data set with DBTRG-05MG [25]. For the same compound, the result in the data set on DBTRG-05MG [15], in the data set on DBTRG-05MG [16], in the data set with DBTRG-05MG [29] and with RG2 [33] was Active. Moreover, the Activity_index in [31] was found to be 0.7.
